# Experimental data reported in ChEMBL document CHEMBL1275440, “In vitro activity of telavancin against resistant gram-positive bacteria” (2008).
# The source made the active and inactive calls. No cut-off for these calls is given here.
# Experiments:
# Type in all cases: functional
# [1] = tested on: Staphylococcus haemolyticus; assay: Antibacterial activity against methicillin resistant coagulase-negative Staphylococcus haemolyticus clinical isolate by broth microdilution method
# [2] = tested on: Staphylococcus aureus; assay: Antibacterial activity against methicillin resistant Staphylococcus aureus MED 2028 osteomyelitis isolate assessed as bacterial count at 8 ug/ml after 4 hrs by time-kill assay
# [3] = tested on: Streptococcus pyogenes; assay: Antibacterial activity against Streptococcus pyogenes MED 2040 assessed as bacterial count at 2 ug/ml after 8 hrs by time-kill assay
# [4] = tested on: Staphylococcus aureus; assay: Antibacterial activity against methicillin resistant Staphylococcus aureus MED 2028 osteomyelitis isolate assessed as bacterial count at 1 ug/ml after 2 hrs by time-kill assay
# [5] = tested on: Streptococcus agalactiae; assay: Antibacterial activity against Streptococcus agalactiae MED 2038 assessed as bacterial count at […] after 8 hrs by time-kill assay
# [6] = tested on: Enterococcus faecalis; assay: Antibacterial activity against Enterococcus faecalis ATCC 51575 assessed as bacterial count at 4 ug/ml after 8 hrs by time-kill assay
# [7] = tested on: Staphylococcus aureus; assay: Antibacterial activity against methicillin resistant Staphylococcus aureus MED 1805 bloodstream isolate by broth microdilution method
# [8] = tested on: Staphylococcus aureus; assay: Antibacterial activity against methicillin resistant Staphylococcus aureus MED 1805 bloodstream isolate assessed as bacterial count at 4 ug/ml after 8 hrs by time-kill assay
# [9] = tested on: Enterococcus faecium; assay: Antibacterial activity against vancomycin resistant Enterococcus faecium VanA clinical isolate by broth microdilution method
# [10] = tested on: Enterococcus faecalis; assay: Antibacterial activity against Enterococcus faecalis ATCC 51575 assessed as bacterial count at 2 ug/ml after 2 hrs by time-kill assay
# [11] = tested on: Staphylococcus epidermidis; assay: Antibacterial activity against methicillin resistant Staphylococcus epidermidis ATCC 35984 assessed as bacterial count at 8 ug/ml after 4 hrs by time-kill assay
# [12] = tested on: Streptococcus pneumoniae; assay: Antibacterial activity against multidrug resistant Streptococcus pneumoniae MED 1090 assessed as bacterial count at 0.03 ug/ml after 4 hrs by time-kill assay
# [13] = tested on: Staphylococcus aureus; assay: Antibacterial activity against methicillin resistant Staphylococcus aureus MED 1805 bloodstream isolate assessed as bacterial count at 16 ug/ml after 8 hrs by time-kill assay
# [14] = tested on: Staphylococcus aureus; assay: Antibacterial activity against methicillin resistant Staphylococcus aureus clinical isolate by broth microdilution method
# [15] = tested on: Streptococcus pneumoniae; assay: Antibacterial activity against multidrug resistant Streptococcus pneumoniae MED 1090 assessed as bacterial count at 8 ug/ml after 24 hrs by time-kill assay
# [16] = tested on: Staphylococcus epidermidis; assay: Antibacterial activity against methicillin resistant Staphylococcus epidermidis ATCC 35984 assessed as bacterial count at 4 ug/ml after 4 hrs by time-kill assay
# [17] = tested on: Staphylococcus aureus; assay: Antibacterial activity against methicillin resistant Staphylococcus aureus MED 2028 osteomyelitis isolate by broth microdilution method
# [18] = tested on: Staphylococcus aureus; assay: Antibacterial activity against methicillin resistant Staphylococcus aureus MED 1805 bloodstream isolate assessed as bacterial count at 4 ug/ml after 24 hrs by time-kill assay
# [19] = tested on: Staphylococcus aureus; assay: Antibacterial activity against methicillin resistant Staphylococcus aureus MED 1805 bloodstream isolate assessed as bacterial count at 2 ug/ml after 8 hrs by time-kill assay
# [20] = tested on: Staphylococcus aureus; assay: Antibacterial activity against methicillin resistant Staphylococcus aureus MED 1805 bloodstream isolate assessed as bacterial count at 4 ug/ml after 4 hrs by time-kill assay
# [21] = tested on: Enterococcus faecalis; assay: Antibacterial activity against Enterococcus faecalis ATCC 51575 assessed as bacterial count at 8 ug/ml after 4 hrs by time-kill assay
# [22] = tested on: Streptococcus pyogenes; assay: Antibacterial activity against Streptococcus pyogenes MED 2040 assessed as bacterial count at 2 ug/ml after 2 hrs by time-kill assay
# [23] = tested on: Streptococcus agalactiae; assay: Antibacterial activity against Streptococcus agalactiae MED 2038 assessed as bacterial count at 0.5 ug/ml after 2 hrs by time-kill assay
# [24] = tested on: Staphylococcus epidermidis; assay: Antibacterial activity against methicillin resistant Staphylococcus epidermidis ATCC 35984 assessed as bacterial count at 4 ug/ml after 8 hrs by time-kill assay
# [25] = tested on: Streptococcus agalactiae; assay: Antibacterial activity against Streptococcus agalactiae MED 2038 assessed as bacterial count at […] after 24 hrs by time-kill assay
# [26] = tested on: Streptococcus pneumoniae; assay: Antibacterial activity against multidrug resistant Streptococcus pneumoniae MED 1090 assessed as bacterial count at 8 ug/ml after 2 hrs by time-kill assay
# [27] = tested on: Staphylococcus aureus; assay: Antibacterial activity against methicillin resistant Staphylococcus aureus MED 1805 bloodstream isolate assessed as bacterial count at 16 ug/ml after 4 hrs by time-kill assay
# [28] = tested on: Streptococcus pyogenes; assay: Antibacterial activity against Streptococcus pyogenes MED 2040 assessed as bacterial count at 8 ug/ml after 24 hrs by time-kill assay
# [29] = tested on: Staphylococcus aureus; assay: Antibacterial activity against methicillin resistant Staphylococcus aureus MED 1805 bloodstream isolate assessed as bacterial count at 2 ug/ml after 24 hrs by time-kill assay
# [30] = tested on: Staphylococcus aureus; assay: Antibacterial activity against methicillin resistant Staphylococcus aureus MED 1805 bloodstream isolate assessed as bacterial count at 1 ug/ml after 24 hrs by time-kill assay
# [31] = tested on: Streptococcus agalactiae; assay: Antibacterial activity against Streptococcus agalactiae MED 2038 assessed as bacterial count at 2 ug/ml after 8 hrs by time-kill assay
# [32] = tested on: Staphylococcus aureus; assay: Antibacterial activity against methicillin resistant Staphylococcus aureus MED 2028 osteomyelitis isolate assessed as bacterial count at 2 ug/ml after 8 hrs by time-kill assay
# [33] = tested on: Streptococcus mitis; assay: Antibacterial activity against Streptococcus mitis clinical isolate by broth microdilution method
# [34] = tested on: Streptococcus pyogenes; assay: Antibacterial activity against Streptococcus pyogenes MED 2040 assessed as bacterial count at 8 ug/ml after 4 hrs by time-kill assay
# [35] = tested on: Streptococcus constellatus; assay: Antibacterial activity against Streptococcus constellatus clinical isolate by broth microdilution method
# [36] = tested on: Staphylococcus epidermidis; assay: Antibacterial activity against methicillin resistant Staphylococcus epidermidis ATCC 35984 assessed as bacterial count at 4 ug/ml after 24 hrs by time-kill assay
# [37] = tested on: Staphylococcus aureus; assay: Antibacterial activity against methicillin resistant Staphylococcus aureus MED 1805 bloodstream isolate assessed as bacterial count at 2 ug/ml after 4 hrs by time-kill assay
# [38] = tested on: Enterococcus faecalis; assay: Antibacterial activity against Enterococcus faecalis ATCC 51575 assessed as bacterial count at 2 ug/ml after 8 hrs by time-kill assay
# [39] = tested on: Staphylococcus epidermidis; assay: Antibacterial activity against methicillin resistant Staphylococcus epidermidis ATCC 35984 assessed as bacterial count at 2 ug/ml after 2 hrs by time-kill assay
# [40] = tested on: Streptococcus pneumoniae; assay: Antibacterial activity against multidrug-resistant Streptococcus pneumoniae clinical isolate by broth microdilution method
# [41] = tested on: Enterococcus faecalis; assay: Antibacterial activity against vancomycin resistant Enterococcus faecalis VanB clinical isolate by broth microdilution method
# [42] = tested on: Staphylococcus saprophyticus; assay: Antibacterial activity against methicillin resistant coagulase-negative Staphylococcus saprophyticus clinical isolate by broth microdilution method
# [43] = tested on: Staphylococcus aureus; assay: Antibacterial activity against methicillin resistant Staphylococcus aureus clinical isolate assessed as susceptibility level by broth microdilution method
smiles,measurement,setting,value
CCCCCCCCCCNCCN[C@@]1(C)C[C@H](O[C@H]2[C@H](Oc3c4cc5cc3Oc3ccc(cc3Cl)[C@@H](O)[C@@H](NC(=O)[C@@H](CC(C)C)NC)C(=O)N[C@@H](CC(N)=O)C(=O)N[C@H]5C(=O)N[C@H]3C(=O)N[C@H](C(=O)N[C@H](C(=O)O)c5cc(O)c(CNCP(=O)(O)O)c(O)c5-c5cc3ccc5O)[C@H](O)c3ccc(c(Cl)c3)O4)O[C@H](CO)[C@@H](O)[C@@H]2O)O[C@@H](C)[C@H]1O [TELAVANCIN],MIC50,[1],0.5 µg/mL
same,MIC90,[1],1 µg/mL
same,log10CFU/ml,[2],2.2
same,log10CFU/ml,[3],3.1
same,log10CFU/ml,[4],0.7
same,log10CFU/ml,[5],2.3
same,log10CFU/ml,[6],0.7
same,MIC,[7],0.5 µg/mL
same,log10CFU/ml,[8],3
same,MIC50,[9],8 µg/mL
same,MIC90,[9],16 µg/mL
same,log10CFU/ml,[10],0.5
same,log10CFU/ml,[11],2.7
same,log10CFU/ml,[12],2.7
same,log10CFU/ml,[13],2.9
same,Activity,[14],100%
same,MIC50,[14]; Staphylococcus aureus,0.25 µg/mL
same,MIC90,[14]; Staphylococcus aureus,0.5 µg/mL
same,log10CFU/ml,[15],3.4
same,log10CFU/ml,[16],1.8
same,MIC,[17],0.5 µg/mL
same,log10CFU/ml,[18],3.3
same,log10CFU/ml,[19],2.7
same,log10CFU/ml,[20],1.8
same,log10CFU/ml,[21],0.2
same,log10CFU/ml,[22],1.8
same,log10CFU/ml,[23],0.87
same,log10CFU/ml,[24],3.2
same,log10CFU/ml,[25],3.6
same,log10CFU/ml,[26],1.2
same,log10CFU/ml,[27],1.6
same,log10CFU/ml,[28],2.7
same,log10CFU/ml,[29],2.8
same,log10CFU/ml,[30],2.7
same,log10CFU/ml,[31],1
same,log10CFU/ml,[32],3.1
same,MIC,[33],0.015 µg/mL
same,MIC50,[33],inactive
same,MIC90,[33],inactive
same,log10CFU/ml,[34],1.2
same,MIC,[35],0.015 µg/mL
same,MIC50,[35],inactive
same,MIC90,[35],inactive
same,log10CFU/ml,[36],3.3
same,log10CFU/ml,[37],2.8
same,log10CFU/ml,[38],0.6
same,log10CFU/ml,[39],0.2
same,MIC50,[40],0.015 µg/mL
same,MIC90,[40],0.03 µg/mL
same,MIC,[41],0.25 µg/mL
same,MIC50,[42],0.5 µg/mL
same,MIC90,[42],1 µg/mL
same,Activity,[43],100%
